# Values of other authors as cited in patent US20100041745A1, “Aigialomycin D and Derivatives Thereof and Their Use in Treating Cancer or Malaria or a Microbial Infection” (priority 2006, published 2010).
smiles,measurement,setting,value
"C[C@H]1C/C=C/[C@@H](O)[C@@H](O)CC/C=C/c2cc(O)cc(O)c2C(=O)O1 [aigialomycin D, Aigialomycin D]",IC50 against KB cells (antitumour activity),KB cells,3.0 µg/mL
same,IC50 against Vero cells (antitumour activity),Vero cells,1.8 µg/mL
same,IC50 against P. falciparum (anti-malarial activity),P. falciparum,6.6 µg/mL
